# Measurements: patent US10329309B2, “3-(3H-imidazo[4,5-B]pyridin-2-yl)-1H-pyrazolo[4,3-B]pyridines and therapeutic uses thereof” (Samumed, LLC, priority 2015, dated 2019)
# How the values were obtained:
# Assay type in all cases: cell-based
# SW480 colon cancer cells = experiment: Cell viability assay (CellTiter-Blue), four days; settings: Homo sapiens, 96 h; for EC50: CellTiter-Blue cell viability; for inhibition at 10 µM: read-out: percent inhibition at 10 μM (given for EC50 of >10 μM)
# Method: Representative compounds were screened using the following assay procedure to assess the effect on cell viability as described below.
# Each compound was dissolved in DMSO as a 10 mM stock and used to prepare compound source plates. Serial dilution (1:3, 8-point dose-response curves from 10 μM to 0.0045 μM) and compound transfer was performed using the ECHO 550 (Labcyte, Sunnyvale, Calif.) into 96-well clear bottom, black-walled plates (Corning-Costar).
# Approximately 2×10^3 SW480 colon cancer cells were seeded into each well and allowed to incubate in the presence or absence of compound for four days at 37° C./5% CO2. Eight replicates of DMSO-treated cells served as controls and cells treated with compound were performed in duplicate.
# After incubation, 20 μL of CellTiter-Blue (Promega) was added to each well allowed to incubate for approximately 3 hours. This reagent was a buffered solution which contains resazurin, metabolically active cells were able to reduce rezarurin (blue) into resorufin (pink) which was highly fluorescent. This measured fluorescence was used as a readout for cell viability.
# After incubation, the plates were read at Ex 560 nm Em 590 nm (Cytation 3, BioTek). Dose-response curves were generated and EC50 concentration values were calculated using non-linear regression curve fit in the GraphPad Prism (San Diego, Calif.) or Dotmatics' Studies Software (Bishops Stortford, UK). For EC50 of >10 μM, the percent inhibition at 10 μM is provided.
# [1] = test system: Wnt activity (Sp5-Luc reporter, SW480 colon carcinoma cells); experiment: Screening assay for Wnt activity: Sp5-Luc reporter gene assay in SW480 cells; settings: Homo sapiens; for inhibition at 10 µM: 10 μM compound, read-out: percent inhibition at 10 μM (given for EC50 of >10 μM); for EC50: overnight incubation, 10-point dose-response from 10 μM
# Description: The screening assay for Wnt activity is described as follows. Reporter cell lines can be generated by stably transducing cancer cell lines (e.g., colon cancer) or primary cells (e.g., IEC-6 intestinal cells) with a lentiviral construct that includes a Wnt-responsive promoter driving expression of the firefly luciferase gene.
# SW480 colon carcinoma cells were transduced with a lentiviral vector expressing luciferase with a human Sp5 promoter consisting of a sequence of eight TCF/LEF binding sites. SW480 cells stably expressing the Sp5-Luc reporter gene and a hygromycin resistance gene were selected by treatment with 150 μg/mL of hygromycin for 7 days. These stably transduced SW480 cells were expanded in cell culture and used for all further screening activities. Each compound was dissolved in DMSO as a 10 mM stock and used to prepare compound source plates. Serial dilution (1:3, 10-point dose-response curves starting from 10 μM) and compound transfer was performed using the ECHO 550 (Labcyte, Sunnyvale, Calif.) into 384-well white solid bottom assay plates (Greiner Bio-One) with appropriate DMSO backfill for a final DMSO concentration of 0.1%. For Sp5-Luc reporter gene assays, the cells were plated at 4,000 cells/well in 384-well plates with medium containing 1% fetal bovine serum and incubated overnight at 37° C. and 5% CO2. Following incubation, 20 μl of BrightGlo luminescence reagent (Promega) was added to each well of the 384-well assay plates. The plates were placed on an orbital shaker for 2 min and then luminescence was quantified using the Envision (Perkin Elmer) plate reader. Readings were normalized to DMSO only treated cells, and normalized activities were utilized for EC50 calculations using the dose-response log (inhibitor) vs. response -variable slope (four parameters) nonlinear regression feature available in GraphPad Prism 5.0 (or Dotmatics). For EC50 of >10 μM, the percent inhibition at 10 μM is provided.
# [2] = test system: primary human fibroblasts derived from IPF patients (LL29 cells), α-smooth muscle actin (αSMA); experiment: Inhibition of the fibrotic process: TGF-β1-treated primary human fibroblasts from IPF patients, αSMA staining; settings: Fibroblast, 96 h, 4 days; for EC50: LL29 fibroblasts from IPF patients, TGF-β1 20 ng/mL, inhibition of fibrotic process; for inhibition at 10 µM: LL29 fibroblasts, TGF-β1 treated, read-out: percent inhibition at 10 μM (given for EC50 of >10 μM)
# Description: Representative compounds were screened using primary human fibroblasts (derived from IPF patients) treated with TGF-β1 to determine their ability to inhibit the fibrotic process.
# Primary human fibroblasts derived from IPF patients (LL29 cells) [^1Xiaoqiu Liu, et. al., “Fibrotic Lung Fibroblasts Show Blunted Inhibition by cAMP Due to Deficient cAMP Response Element-Binding Protein Phosphorylation”, Journal of Pharmacology and Experimental Therapeutics (2005), 315(2), 678-687; ^2Watts, K. L., et. al., “RhoA signaling modulates cyclin D1 expression in human lung fibroblasts; implications for idiopathic pulmonary fibrosis”, Respiratory Research (2006), 7(1), 88] were obtained from American Type Culture Collection (ATCC) and expanded in F12 medium supplemented with 15% Fetal Bovine Serum and Penicillin/Streptomycin.
# Each compound was dissolved in DMSO as a 10 mM stock and used to prepare compound source plates. Serial dilution (1:2, 11-point dose-response curves from 10 μM to 1.87 nM) and compound transfer was performed using the ECHO 550 (Labcyte, Sunnyvale, Calif.) into 384-well clear bottom assay plates (Greiner Bio-One) with appropriate DMSO backfill for a final DMSO concentration of 0.1%. LL29 cells are plated at 1,500 cells/well in 80 μL/well F12 medium supplemented with 1% Fetal Bovine Serum. One hour after addition of the cells, TGF-β1 (Peprotech; 20 ng/mL) was added to the plates to induce fibrosis (ref. 1 and 2 above). Wells treated with TGF-β1 and containing DMSO were used as controls. Cells were incubated at 37° C. and 5% CO2 for 4 days. Following incubation for 4 days, SYTOX green nucleic acid stain (Life Technologies [Thermo Fisher Scientific]) was added to the wells at a final concentration of 1 μM and incubated at room temperature for 30 min. Cells were then fixed using 4% formaldehyde (Electron Microscopy Sciences), washed 3 times with PBS followed by blocking and permeabilization using 3% Bovine Serum Albumin (BSA; Sigma) and 0.3% Triton X-100 (Sigma) in PBS. Cells were then stained with antibody specific to α-smooth muscle actin (αSMA; Abcam) (ref. 1 and 2 above) in 3% Bovine Serum Albumin (BSA; Sigma) and 0.3% Triton X-100 (Sigma) in PBS, and incubated overnight at 4° C. Cells were then washed 3 times with PBS, followed by incubation with Alexa Flor-647 conjugated secondary antibody (Life Technologies [Thermo Fisher Scientific]) and DAPI at room temperature for 1 hour. Cells were then washed 3 times with PBS and plates were sealed for imaging. αSMA staining was imaged by excitation at 630 nm and emission at 665 nm and quantified using the Compartmental Analysis program on the CellInsight CX5 (Thermo Scientific). Dead or apoptotic cells were excluded from analysis based on positive SYTOX green staining. % of total cells positive for αSMA were counted in each well and normalized to the average of 11 wells treated with TGF-β1 on the same plate using Dotmatics' Studies Software. The normalized averages (fold change over untreated) of 3 replicate wells for each compound concentration were used to create dose-responses curves and EC50 values were calculated using non-linear regression curve fit in the Dotmatics' Studies Software. For EC50 of >10 μM, the percent inhibition at 10 μM is provided.
Compound,EC50 (SW480 colon cancer cells),inhibition at 10 µM (SW480 colon cancer cells),inhibition at 10 µM [1],EC50 [1],EC50 [2],inhibition at 10 µM [2]
"CCC(=O)Nc1cncc(-c2ccc3[nH]nc(-c4nc5c(-c6cccc(F)c6)ccnc5[nH]4)c3n2)c1 [Compound 1, N-(5-(3-(7-(3-fluorophenyl)-3H-imidazo[4,5-b]pyridin-2-yl)-1H-pyrazolo [4,3-b]pyridin-5-yl)pyridin-3-yl)propionamide]",> 10 µM,19.9%,51.6%,> 10 µM,> 10 µM,3%
"Fc1cccc(-c2ccnc3[nH]c(-c4n[nH]c5ccc(-c6ccncc6)nc45)nc23)c1 [Compound 18, 3-(7-(3-fluorophenyl)-3H-imidazo[4,5-b]pyridin-2-yl)-5-(pyridin-4-yl)-1H-pyrazolo[4,3-b]pyridine]",> 10 µM,0%,21%,> 10 µM,> 10 µM,21.4%
"O=C(Nc1cncc(-c2ccc3[nH]nc(-c4nc5c(-c6cccc(F)c6)ccnc5[nH]4)c3n2)c1)C1CC1 [Compound 20, N-(5-(3-(7-(3-Fluorophenyl)-3H-imidazo[4,5-b]pyridin-2-yl)-1H-pyrazolo [4,3-b]pyridin-5-yl)pyridin-3-yl)cyclopropanecarboxamide]",> 10 µM,2.8%,51.2%,> 10 µM,> 10 µM,20.2%
"Fc1cccc(-c2ccnc3[nH]c(-c4n[nH]c5ccc(-c6cncc(CN7CCC(F)(F)C7)c6)nc45)nc23)c1 [Compound 26, 5-(5-((3,3-Difluoropyrrolidin-1-yl)methyl)pyridin-3-yl)-3-(7-(3-fluorophenyl)-3H-imidazo[4,5-b]pyridin-2-yl)-1H-pyrazolo[4,3-b]pyridine]",0.409 µM,–,–,0.885 µM,0.344 µM,–
"CC(C)(C)C(=O)Nc1cncc(-c2ccc3[nH]nc(-c4nc5c(-c6ccc(F)cc6)ccnc5[nH]4)c3n2)c1 [Compound 36, N-(5-(3-(7-(4-fluorophenyl)-3H-imidazo[4,5-b]pyridin-2-yl)-1H-pyrazolo [4,3-b]pyridin-5-yl)pyridin-3-yl)pivalamide]",> 10 µM,15%,28.4%,> 10 µM,2.56 µM,–
"Fc1ccc(-c2ccnc3[nH]c(-c4n[nH]c5ccc(-c6cncnc6)nc45)nc23)cc1 [Compound 55, 3-(7-(4-Fluorophenyl)-3H-imidazo[4,5-b]pyridin-2-yl)-5-(pyrimidin-5-yl)-1H-pyrazolo[4,3-b]pyridine]",0.171 µM,–,20.2%,> 10 µM,0.063 µM,–
"Nc1cncc(-c2ccc3[nH]nc(-c4nc5c(-c6ccccc6F)ccnc5[nH]4)c3n2)c1 [Compound 59, 5-(3-(7-(2-fluorophenyl)-3H-imidazo[4,5-b]pyridin-2-yl)-1H-pyrazolo[4,3-b]pyridin-5-yl)pyridin-3-amine]",> 10 µM,21.5%,46.5%,> 10 µM,2.41 µM,–
"CC(C)C(=O)Nc1cncc(-c2ccc3[nH]nc(-c4nc5c(-c6ccccc6F)ccnc5[nH]4)c3n2)c1 [Compound 65, N-(5-(3-(7-(2-fluorophenyl)-3H-imidazo[4,5-b]pyridin-2-yl)-1H-pyrazolo [4,3-b]pyridin-5-yl)pyridin-3-yl)isobutyramide]",> 10 µM,7.5%,14.3%,> 10 µM,> 10 µM,0%
"O=C(Nc1cncc(-c2ccc3[nH]nc(-c4nc5c(-c6ccccc6F)ccnc5[nH]4)c3n2)c1)C1CCCC1 [Compound 78, N-(5-(3-(7-(2-fluorophenyl)-3H-imidazo[4,5-b]pyridin-2-yl)-1H-pyrazolo [4,3-b]pyridin-5-yl)pyridin-3-yl)cyclopentanecarboxamide]",> 10 µM,12.3%,39.4%,> 10 µM,2.83 µM,–
"CC(C)C(=O)Nc1cncc(-c2ccc3[nH]nc(-c4nc5c(-c6cccnc6)ccnc5[nH]4)c3n2)c1 [Compound 93, N-(5-(3-(7-(pyridin-3-yl)-3H-imidazo[4,5-b]pyridin-2-yl)-1H-pyrazolo[4,3-b]pyridin-5-yl)pyridin-3-yl)isobutyramide]",> 10 µM,8.1%,10.2%,> 10 µM,> 10 µM,0%
"Cc1ccncc1-c1ccc2[nH]nc(-c3nc4c(-c5ccncc5)ccnc4[nH]3)c2n1 [Compound 117, 5-(4-methylpyridin-3-yl)-3-(7-(pyridin-4-yl)-3H-imidazo[4,5-b]pyridin-2-yl)-1H-pyrazolo[4,3-b]pyridine]",> 10 µM,1.7%,4.8%,> 10 µM,> 10 µM,2.8%
"O=C(Cc1ccccc1)Nc1cncc(-c2ccc3[nH]nc(-c4nc5c(-c6ccncc6)ccnc5[nH]4)c3n2)c1 [Compound 122, 2-phenyl-N-(5-(3-(7-(pyridin-4-yl)-3H-imidazo[4,5-b]pyridin-2-yl)-1H-pyrazolo[4,3-b]pyridin-5-yl)pyridin-3-yl)acetamide]",> 10 µM,4.4%,8.4%,> 10 µM,> 10 µM,0%
